The values that follow come from patent publication US9261498B2, “Biomarker for sensitivity to mTOR inhibitor therapy in kidney cancer” (The Regents of the University of California, priority 2005, dated 2016).

This assay has as its system VHL knockdown xenograft tumors. As to the kind of experiment: FDG microPET imaging of xenograft tumors. Type of assay: in vivo, SCID mice. The conditions noted are these: within 24 hours, CCI-779 0.1 mg/kg i.p. every 12 hours; uptake normalized to liver. Here is the method:
FIGS. 5A-5B. […] (a) Representative images of two SCID-mice bearing isogenic ACHN-xenograft tumors on the right flank before and after two doses of CCI-799 (0.1 mg/kg). Arrows indicate the location of subcutaneous xenograft tumors (innate increased signal intensity due to abdominal brown fat and glial tissue are observed in the thorax and skull of the mice). (b) Quantification of FDG uptake (+/−SEM) in SCID-mice bearing either ACHN-vector or ACHN-CSCG VHL shRNA subcutaneous xenografts. FDG-tumor uptake was normalized to hepatic FDG-uptake for each mouse. n=3 per group and experiments were repeated twice with identical results.
Total RNA was extracted from SN12C-CSCG, ACHN-CSCG, SN12C-CSCG-VHLshRNA and ACHN-CSCG-VHL shRNA cell lines treated with vehicle or 10 nM of CCI-779 using the RNeasy kit (Qiagen). Two μg of total RNA was used as a template for the production of c DNA through reverse transcription. […] Threshold cycles (Ct's) for the RT samples were recorded. […] Tracer uptake by the tumors was expressed as the ratio between the maximum intratumoral and mean hepatic counts/pixel. All quantitative values are reported as mean±standard error of the mean (SEM).

As for `CO[C@H]1C[C@@H]2CC[C@@H](C)[C@@](O)(O2)C(=O)C(=O)N2CCCC[C@H]2C(=O)O[C@H]([C@H](C)C[C@@H]2CC[C@@H](OC(=O)C(C)(CO)CO)[C@H](OC)C2)CC(=O)[C@H](C)/C=C(\C)[C@@H](O)[C@@H](OC)C(=O)[C@H](C)C[C@H](C)/C=C/C=C/C=C/1C` [CCI-779], the “FDG uptake of VHL knockdown tumors” value is given as “reduced to baseline”.
